Legend:
[1] = tested on: transplanted tumor of human colon cancer HT-29 cells; assay: Human colon cancer in nude mice model; details: HT-29 nude mice; 30 mg/kg i.g. 30 d
Experimental: Then cell concentration was adjusted to 1×10^7/ml with matrigel, then each nude mouse was inoculated subcutaneously with 0.2 ml of cells at its right armpit and recorded as the first day of inoculation. […] Each group was continuously administered intragastrically for 30 days with a dose of 20 ml/kg. The mice were sacrificed the next day after drug withdrawal and the indicators were tested. The long diameter and short diameter of the tumor, and the body weight of each mouse were recorded every 3 days from drug administration to nude mouse sacrifice.
The body weight of the nude mice and the long diameter (a) and short diameter (b) of the transplanted tumor were measured every 3 days, and the tumor volume (v), relative tumor volume (RTV) and relative tumor proliferation rate (T/C) are calculated respectively according to the following formulas, wherein V=a×b^2/2; RTV=V/V0 (V0 is the tumor volume before administration, V is the tumor volume before sacrifice), and T/C (%)=treatment group RTV/model control group RTV×100%.
Each mouse was weighed and sacrificed. After the tumor was completely stripped off from the body of the mouse, the non-tumor tissues such as blood stains and fat were removed to weigh the tumor and calculate the tumor growth inhibition rate. The average tumor weight of each group of mice is used as an indicator of efficacy. Tumor growth inhibition rate (%)=(1−the average tumor weight of the treatment group/the average tumor weight of the model group)×100%.

[2] = tested on: transplanted tumor of mouse Lewis lung cancer; assay: Inhibition of transplanted tumor of mouse Lewis lung cancer
Experimental: Lewis lung cancer cells were cultured in a RPMI 1640 culture medium containing 10% fetal bovine serum at 37° C. in a 5% CO2 incubator. The cells in the logarithmic growth phase were subjected to trypsinization with 0.25% trypsin, then the cells were collected to be centrifugated to remove the obtained supernatant, then were washed twice with sterile normal saline. […] The Lewis cells were adjusted to 1×10^7/mL in concentration and stored in ice water. 75% ethanol was used to disinfect the skin under the right armpits of the mice, and each C57BL/6 mouse was soon inoculated subcutaneously with 0.2 ml of the cells at its right armpit.
In the Lewis lung cancer model, the mice inoculated with the tumor were randomly divided into groups with 10 mice in each group on the next day of inoculation. […] Each group was continuously administered intragastrically for 15 days with a dose of 20 ml/kg.
The tumor-bearing mice were weighed and sacrificed the next day after the last administration. The subcutaneous tumors were dissected and weighed. The average tumor weight of each group is calculated, and the tumor inhibition rate is calculated. Tumor inhibition rate=(1−T/C)×100%
T: average tumor weight of the drug-administered group; C: average tumor weight of the blank control group.

In the case of O=P1(N(CCCl)CCCl)NCCCO1 (stereo not shown) [Cyclophosphamide], the “Body Weight (g)(d1)” value [1] is reported as 23.76 ± 01.11 g, the “Body Weight (g)(d30)” value [1] is reported as 21.52 ± 01.32 g and the “Inhibition Rate (%)” value [1] is reported as 67.38%. The “Relative Tumor Proliferation Rate(T/C)” value [1] was 25.71%, the “Relative Tumor Volume (RTV)” value [1] was 5.21 ± 0.70 and the “Tumor Volume (mm3) (d1)” value [1] was 156.61 ± 5.92 mm3. For the same compound, the “Tumor Volume (mm3) (d30)” value [1] was 816.17 ± 21.03 mm3, the “Tumor Weight” value [1] was 0.40 ± 0.03 g and the “Tumor Weight” value ([2]; 26 mg/kg, positive drug group, 15 days) was 0.59 ± 0.13 g. For the same compound, the “Inhibition Rate (%)” value ([2]; 26 mg/kg, positive drug group, by tumor weight) was 49.14%, the “Body Weight (g)(d1)” value ([2]; 26 mg/kg, positive drug group, d1) was 25.60 ± 2.06 g and the “Body Weight (g) (d15)” value ([2]; 26 mg/kg, positive drug group, d15) was 20.14 ± 3.26 g. The tumor inhibition rate ([2]; mouse Lewis lung cancer, cyclophosphamide 30 mg/kg i.g. 15 days) was 49.14%.

— patent US11077126B2 (priority 2017, dated 2021)
